Assay results: ChEMBL document CHEMBL1201862, “PubChem BioAssay data set” (2004)
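Compound exposure: 48 hours, 5 concentrations, 96-well plates. GI50: concentration for 50% inhibition of growth.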 Calls of active or inactive are those of the source. No stated cut-off is given here; in the data, active = GI50 up to about 1.1 µM and inactive = higher.

Legend:
Test in all cases: growth of human tumour cells (NCI), 48 h
[1] = system: SW-620
[2] = system: KM12
[3] = system: HCT-15
[4] = system: RPMI-8226
[5] = system: DLD-1
[6] = system: SNB-19
[7] = system: SK-MEL-2
[8] = system: COLO 205
[9] = system: LXFL 529
[10] = system: HCC 2998
[11] = system: SK-OV-3
[12] = system: A498
[13] = system: NCI-H23
[14] = system: OVCAR-3
[15] = system: DMS-114
[16] = system: EKVX
[17] = system: SF-295
[18] = system: NCI-H226
[19] = system: DMS-273
[20] = system: SK-MEL-5
[21] = system: K562
[22] = system: IGROV-1
[23] = system: SNB-78
[24] = system: UACC-62
[25] = system: TK-10
[26] = system: SK-MEL-28
[27] = system: LOX IMVI
[28] = system: SN12C
[29] = system: RXF 631
[30] = system: SF-539
[31] = system: M19-MEL
[32] = system: HL-60
[33] = system: OVCAR-8
[34] = system: HT-29
[35] = system: MOLT-4
[36] = system: M14
[37] = system: UO-31
[38] = system: SNB-75
[39] = system: HOP-18
[40] = system: A549
[41] = system: CCRF-CEM
[42] = system: 786-0
[43] = system: HOP-62
[44] = system: NCI-H522
[45] = system: ACHN
[46] = system: HCT-116
[47] = system: XF498
[48] = system: HOP-92
[49] = system: SF-268
[50] = system: OVCAR-4
[51] = system: RXF 393
[52] = system: U-251
[53] = system: Malme-3M
[54] = system: SR
[55] = system: KM-20L2
[56] = system: UACC-257

## COc1cc2c(c3oc(-c4ccc5c(c4)OCO5)c(O)c(=O)c13)CCC(C)(C)O2
[1]
  GI50: > 100 µM (inactive)
[2]
  GI50: > 100 µM (inactive)
[3]
  GI50: > 100 µM
[4]
  GI50: 34.5 µM (inactive)
[5]
  GI50: > 100 µM (inactive)
[6]
  GI50: > 100 µM (inactive)
[7]
  GI50: > 100 µM (inactive)
[8]
  GI50: > 100 µM (inactive)
[9]
  GI50: 22.9 µM (inactive)
[10]
  GI50: > 100 µM (inactive)
[11]
  GI50: > 100 µM (inactive)
[12]
  GI50: > 100 µM (inactive)
[13]
  GI50: > 100 µM (inactive)
[14]
  GI50: > 100 µM (inactive)
[15]
  GI50: > 100 µM (inactive)
[16]
  GI50: > 100 µM (inactive)
[17]
  GI50: > 100 µM (inactive)
[18]
  GI50: > 100 µM (inactive)
[19]
  GI50: > 100 µM (inactive)
[20]
  GI50: > 100 µM (inactive)
[21]
  GI50: > 100 µM (inactive)
[22]
  GI50: > 100 µM (inactive)
[23]
  GI50: > 100 µM (inactive)
[24]
  GI50: > 100 µM (inactive)
[25]
  GI50: > 100 µM (inactive)
[26]
  GI50: > 100 µM (inactive)
[27]
  GI50: > 100 µM (inactive)
[28]
  GI50: > 100 µM (inactive)
[29]
  GI50: > 100 µM (inactive)
[30]
  GI50: > 100 µM (inactive)
[31]
  GI50: > 100 µM (inactive)
[32]
  GI50: > 100 µM (inactive)
[33]
  GI50: > 100 µM (inactive)
[34]
  GI50: > 100 µM (inactive)
[35]
  GI50: > 100 µM (inactive)
[36]
  GI50: > 100 µM (inactive)
[37]
  GI50: > 100 µM (inactive)
[38]
  GI50: 12.3 µM (inactive)
[39]
  GI50: > 100 µM (inactive)
[40]
  GI50: > 100 µM (inactive)
[41]
  GI50: 79.8 µM (inactive)
[42]
  GI50: > 100 µM (inactive)

## CCOc1ccc(/C=C(\Cl)c2ccc(OC)c(OC)c2)cc1
[1]
  GI50: 50.6 µM (inactive)
[3]
  GI50: 20.9 µM
[4]
  GI50: 20 µM (inactive)
[5]
  GI50: 22.5 µM (inactive)
[6]
  GI50: > 100 µM (inactive)
[43]
  GI50: 98.6 µM (inactive)
[44]
  GI50: 19.2 µM (inactive)
[8]
  GI50: 48.2 µM (inactive)
[9]
  GI50: 35.9 µM (inactive)
[10]
  GI50: 41.6 µM (inactive)
[45]
  GI50: 36.4 µM (inactive)
[11]
  GI50: 77.1 µM (inactive)
[46]
  GI50: 32.6 µM (inactive)
[12]
  GI50: 27.6 µM (inactive)
[13]
  GI50: 19.3 µM (inactive)
[47]
  GI50: > 100 µM (inactive)
[15]
  GI50: 26.6 µM (inactive)
[16]
  GI50: 80.4 µM (inactive)
[17]
  GI50: 80.9 µM (inactive)
[18]
  GI50: 33.1 µM (inactive)
[48]
  GI50: 55.3 µM (inactive)
[19]
  GI50: 22 µM (inactive)
[20]
  GI50: 26.5 µM (inactive)
[49]
  GI50: 87.3 µM (inactive)
[21]
  GI50: 30.8 µM (inactive)
[22]
  GI50: 84.9 µM (inactive)
[23]
  GI50: 89.5 µM (inactive)
[24]
  GI50: 20.5 µM (inactive)
[26]
  GI50: 38.5 µM (inactive)
[50]
  GI50: 33.3 µM (inactive)
[28]
  GI50: 60.3 µM (inactive)
[30]
  GI50: > 100 µM (inactive)
[51]
  GI50: 12.4 µM (inactive)
[31]
  GI50: 37.4 µM (inactive)
[32]
  GI50: 21.8 µM (inactive)
[33]
  GI50: 63.8 µM (inactive)
[34]
  GI50: 16.6 µM (inactive)
[52]
  GI50: > 100 µM (inactive)
[53]
  GI50: 58.9 µM (inactive)
[35]
  GI50: 26.2 µM (inactive)
[36]
  GI50: 25.3 µM (inactive)
[54]
  GI50: 12.2 µM (inactive)
[55]
  GI50: 16.7 µM (inactive)
[37]
  GI50: 28.7 µM (inactive)
[38]
  GI50: > 100 µM (inactive)
[39]
  GI50: 57.9 µM (inactive)
[40]
  GI50: 35.2 µM (inactive)
[56]
  GI50: 21 µM (inactive)
[41]
  GI50: 37.1 µM (inactive)
[42]
  GI50: > 100 µM (inactive)
